The subject of test [1] is sumoylated TFAP2A in BT549 cells. Kind of test: Sumoylation of TFAP2A in BT549 cells with peroxide / MG-132. The class given is cell-based, human. The method, then:
FIG. 15A-15B. Sumoylated TFAP2A in Basal Cells Induced with Peroxide. Sumoylation of TFAP2A was analyzed in the basal cell line BT549 with and without treatment with peroxide. FIG. 15A. BT549 cells co-transfected with vectors for TFAP2A and either SUMO-1, -2 or -3 and treated without or with peroxide, as indicated. […] Experiment in A was performed in the absence of the proteasome inhibitor MG-132. FIG. 15B. Similar experiments performed with MG-132 treatment either without or with peroxide.
Sumoylation in vitro was done using SUMOlink™ SUMO-1 Kit and SUMOlink™ SUMO-2/3 Kit (Carlsbad). SUMO plasmids and pcDNA3.1-TFAP2A or K10R mutant were used for in vitro protein production. MCF-7 were transfected for 48 hours with […] SUMO expressing plasmids (Feng et al., 2013) that were kindly provided by Dr Xiaolu Yang (University of Pennsylvania). As indicated in some experiments, the proteasome inhibitor MG132 was added as described (Chu and Yang, 2011).

The next test deals with FREM2 and RET expression. Kind of test: Estrogen responsiveness of FREM2 expression, Tamoxifen treatment. Conditions: FIG. 11E. The class given is cell-based.

Peptide text beside a SMILES is read from it. * marks the point of attachment. Cbz = O=C(OCc1ccccc1)*

With `CC(C)C[C@@H](C=O)NC(=O)[C@H](CC(C)C)NC(=O)[C@H](CC(C)C)NC(=O)OCc1ccccc1` [MG-132] (Cbz-Leu-Leu-Leu-aldehyde), the “identification of the sumoylated forms of TFAP2A” value in test [1] (BT549 cells, MG-132 treatment without or with peroxide, FIG. 15B) is reported as “enhanced identification”. On to `OO` [peroxide], for which the “sumoylated TFAP2A” value in test [1] (BT549 cells co-transfected with TFAP2A and SUMO-1, -2 or -3, with vs without peroxide, FIG. 15A) was “Induction”.

As for `CC/C(=C(\c1ccccc1)c1ccc(OCCN(C)C)cc1)c1ccccc1` [Tamoxifen], in the test on FREM2 and RET expression, the FREM2 expression entry is on record as “not estrogen responsive” and the RET expression result was “appropriately repressed”.
